Reference: ChEMBL document CHEMBL1201862, “PubChem BioAssay data set” (2004)
The source made the active and inactive calls.

Assays:
[1] = biological target: T1, Cytochrome P450 3A4 (Homo sapiens, UniProt P08684); conditions: Potency
[2] = biological target: T2, Protein skinhead-1 (Caenorhabditis elegans, UniProt P34707); assay type: functional
T2 sequence (P34707 whole entry): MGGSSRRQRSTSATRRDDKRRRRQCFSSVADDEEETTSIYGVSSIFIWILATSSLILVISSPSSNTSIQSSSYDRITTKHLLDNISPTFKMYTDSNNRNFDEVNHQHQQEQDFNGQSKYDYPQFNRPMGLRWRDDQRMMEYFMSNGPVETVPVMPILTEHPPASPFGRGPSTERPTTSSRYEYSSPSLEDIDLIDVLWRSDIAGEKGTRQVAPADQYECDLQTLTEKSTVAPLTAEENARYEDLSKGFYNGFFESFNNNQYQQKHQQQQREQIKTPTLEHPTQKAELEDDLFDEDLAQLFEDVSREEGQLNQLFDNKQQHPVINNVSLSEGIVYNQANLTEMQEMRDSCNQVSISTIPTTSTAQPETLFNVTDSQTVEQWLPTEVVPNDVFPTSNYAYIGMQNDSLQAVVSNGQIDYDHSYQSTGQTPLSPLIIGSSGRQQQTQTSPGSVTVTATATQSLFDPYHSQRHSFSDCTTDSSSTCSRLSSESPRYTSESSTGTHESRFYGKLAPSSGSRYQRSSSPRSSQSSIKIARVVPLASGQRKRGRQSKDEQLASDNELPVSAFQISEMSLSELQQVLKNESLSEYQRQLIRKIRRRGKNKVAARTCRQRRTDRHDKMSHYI

[3] = A cytotoxicity screen of small molecule inhibitors of the PhoP region in Salmonella typhi identified in the primary screen. [Related pubchem assays: 1850, 1864, 1985 ]; assay type: functional
[4] = biological target: T1, Cytochrome P450 3A4
[5] = cells; assay type: functional
[6] = biological target: Cytochrome P450 2D6 (Homo sapiens, UniProt P10635);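 note: CYP2D6 member of a cytochrome P450 panel assay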
Sequence of Cytochrome P450 2D6 (P10635 whole entry, the tested form may be a part): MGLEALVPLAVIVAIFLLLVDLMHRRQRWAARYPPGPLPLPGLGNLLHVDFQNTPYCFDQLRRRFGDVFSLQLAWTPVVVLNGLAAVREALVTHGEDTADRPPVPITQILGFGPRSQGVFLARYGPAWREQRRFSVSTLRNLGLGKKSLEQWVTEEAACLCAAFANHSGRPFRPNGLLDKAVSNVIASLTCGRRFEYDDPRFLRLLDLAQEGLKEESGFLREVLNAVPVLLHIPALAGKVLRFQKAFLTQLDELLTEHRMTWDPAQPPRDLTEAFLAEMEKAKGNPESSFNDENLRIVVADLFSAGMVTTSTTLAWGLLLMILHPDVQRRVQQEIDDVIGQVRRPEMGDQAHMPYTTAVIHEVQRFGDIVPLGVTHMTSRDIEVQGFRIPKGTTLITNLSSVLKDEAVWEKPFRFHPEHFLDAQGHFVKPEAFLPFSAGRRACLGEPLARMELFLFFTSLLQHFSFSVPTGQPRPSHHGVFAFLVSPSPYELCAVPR

[7] = blockers of HIV-1 ZM109 envelope-driven cell-cell fusion – HeLa effector, CEM target cells, luciferase, cherry-pick, dose response (AID 652058); assay type: functional, cell-based;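 note: luciferase signal from HIV-1 Env mediated cell-cell fusion of effector and target cells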
[8] = blockers of HIV-1 envelope-mediated cell-cell fusion – cherry-pick, dose response (AID 652057); assay type: functional, cell-based
[9] = viability loss in CEM21 cells – cell-based, CellTiter-Glo luminescence, cherry-picked, cytotoxicity control for viral fusion inhibitor project, dose response (AID 652042); assay type: functional;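 note: potency for signal decrease meaning cytotoxicity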
[10] = HIV-1 AD8 envelope cell-cell fusion blockers – cherry-pick, dose response (AID 652062); assay type: functional, cell-based;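 note: luciferase signal from cell-cell fusion driven by HIV-1 clade B AD8 Env; potency is for inhibitors of fusion seen as a drop in luminescence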
[11] = HEK-293T viability loss after treatment – luminescence, T-cell screen hits, cytotoxicity control for TCR NF-kB inhibitor project, dose response (AID 489026); assay type: functional, cell-based;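 note: cells exposed to compound about 14 hours before the viability readout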
[12] = biological target: Heat shock protein HSP 90-alpha (Homo sapiens, UniProt P07900); assay type: functional, organism-based
[13] = biological target: Nonstructural protein 1 (Influenza A virus, UniProt Q194T2); assay type: functional, Influenza A virus (A/California/07/2009(H1N1))
Sequence of Nonstructural protein 1 (Q194T2 whole entry): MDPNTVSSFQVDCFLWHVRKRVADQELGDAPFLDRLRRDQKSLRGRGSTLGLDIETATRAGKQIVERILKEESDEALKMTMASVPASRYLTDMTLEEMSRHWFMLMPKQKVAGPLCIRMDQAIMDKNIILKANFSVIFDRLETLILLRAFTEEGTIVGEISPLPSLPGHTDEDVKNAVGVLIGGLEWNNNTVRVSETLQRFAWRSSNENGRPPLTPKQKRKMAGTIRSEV

T1 sequence (P08684 whole entry): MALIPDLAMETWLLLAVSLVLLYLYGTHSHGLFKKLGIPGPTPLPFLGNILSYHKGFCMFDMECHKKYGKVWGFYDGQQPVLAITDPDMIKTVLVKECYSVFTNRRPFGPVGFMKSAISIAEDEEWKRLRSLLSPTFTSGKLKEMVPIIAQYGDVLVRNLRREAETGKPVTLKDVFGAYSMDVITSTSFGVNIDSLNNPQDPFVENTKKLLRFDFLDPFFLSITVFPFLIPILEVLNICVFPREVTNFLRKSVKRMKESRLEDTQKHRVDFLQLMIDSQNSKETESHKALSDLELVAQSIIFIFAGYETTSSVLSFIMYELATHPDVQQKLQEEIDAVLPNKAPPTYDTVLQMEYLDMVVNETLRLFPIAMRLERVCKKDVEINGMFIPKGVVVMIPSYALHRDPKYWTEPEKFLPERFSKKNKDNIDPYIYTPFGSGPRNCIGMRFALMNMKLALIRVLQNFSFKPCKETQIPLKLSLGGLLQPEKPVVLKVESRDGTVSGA

CC(=O)OC1CC2C(C)(C)C(=O)[C@@H]3OC3[C@@]2(C)C2CC[C@]3(C)C(=CC(=O)OC3c3ccoc3)[C@]12C (stereo partly specified)
AC50 [1]: 15.8 µM (inconclusive)

O=C(Nc1nc2ccccc2s1)c1ccccc1
IC50 [2]: > 100 µM (inactive)

CCN(CC)C(=O)C(=O)c1cn(CC(=O)N2CCc3ccccc3C2)c2ccccc12
EC50 [3]: > 50 µM (active)

CC(=O)OC1=C(O)C(=O)c2ccccc2C1=O
EC50 [3]: > 50 µM (active)

O=C(NC(=S)Nc1cccc2c(O)cccc12)c1cccc(Br)c1
IC50 [2]: > 100 µM (inactive)

O=C(Cn1c(C(F)(F)F)nc2ccccc21)c1ccc(F)cc1
IC50 [2]: > 100 µM (inactive)
AC50 [4]: 12.6 µM (inconclusive)

Nc1nnc(Sc2ncccc2[N+](=O)[O-])s1
IC50 [5]: 15.3 µM (active)

CC1CCc2c(C(=O)Nc3nccs3)csc2C1 (stereo unspecified)
IC50 [2]: > 100 µM (inactive)
AC50 [6]: 3.55 µM (inconclusive)

O=C(C[C@H]1CC[C@@H](NC(=O)c2ccccc2)[C@H](CO)O1)NCc1ccc(Oc2ccccc2)cc1
AC50 [7]: 0.349 µM (active)
AC50 [8]: 3.8 µM (active)
AC50 [9]: 62.1 µM (active)
AC50 [10]: 4.3 µM (active)

COC(=O)CCC(=O)NC(=S)Nc1sc(C)c(C)c1C(N)=O
IC50 [11]: > 80 µM (inactive)

COc1cccc(NC(=O)c2cnc(SC)nc2)c1
IC50 [5]: 15.3 µM (active)

O=C(C[n+]1ccc(-c2ccccc2)cc1)Nc1ccc([N+](=O)[O-])cc1
EC50 [3]: > 50 µM (active)

O=S(=O)(Nc1ncccn1)c1ccc(NC(=S)Nc2ccc(Cl)cc2)cc1
EC50 [3]: > 50 µM (active)

Cc1nnc(SCC(=O)Nc2cc(S(=O)(=O)N3CCCC3)ccc2Cl)s1
EC50 [3]: > 50 µM (active)

COc1ccc(C(=O)c2oc3ccc(OC)cc3c2N)cc1
IC50 [2]: > 100 µM (inactive)

COc1ccc(C2OCC3(COC(C)=O)C(C)C=C(C)C2C3C)cc1 (stereo unspecified)
AC50 [1]: 15.8 µM (inconclusive)

Cc1ccc(-n2ncc3c2CCCC3NC(=O)c2ccccc2N2CCOCC2)cc1C (stereo unspecified)
AC50 [12]: 0.984 µM (active)

COc1ccc(OC2C=CC(c3ccccc3)OC2CO)c(C(C)=O)c1 (stereo unspecified)
AC50 [1]: 3.98 µM (inconclusive)

Cc1nc(N2CCOCC2)c2nc(-c3ccccc3)n(CCCN3CCCCC3C)c2n1 (stereo unspecified)
AC50 [1]: 15.8 µM (inconclusive)

CCC12C=CCN3CCC4(c5ccc(OC)cc5N(C)C4[C@@](O)(C(=O)OC)C1OC(C)=O)C32 (stereo partly specified)
AC50 [1]: 3.98 µM (inconclusive)

Cc1ccc(S(=O)(=O)N2CCOCC2)cc1NC(=O)CNCc1ccccn1
IC50 [13]: 18 µM (active)
